Experimental findings from a melting point compilation (Tetko et al.; mined from patent text by program, amines drawn as free bases though some values may be those of a salt) are described below.

Broadly, the melting point is the temperature of the solid-liquid transition. `Cc1cc(C(=O)CCc2sc(-c3ccc(C(F)(F)F)cc3)cc2C(C)C)ccc1OCC(=O)O` yielded a melting point of 139 to 143 °C.
The molecule `C[C@@H]1Cc2ccsc2[C@H](C)N1CCCNC(=O)c1ccc(NS(C)(=O)=O)cc1` (relative stereo) had a melting point of 148 to 150 °C.
The same measure for `COc1cc2c(=O)n(CCCc3ccccc3)c3cc(OC)c(OC)cc3c2cc1OC`: 209 to 211 °C; for `COc1ccc2c(c1)C(=O)c1c-2c(Nc2ccc(C(C)=O)cc2)nc2ccccc12`: 251 to 252 °C; for `Cc1nc(NC(=O)NS(=O)(=O)C(Cl)C(C)Cl)nc(C)c1Cl` (stereo not drawn): 161 to 162 °C.
`COc1cc2c(cc1N1CCN(CC3=CC4=CCSC4=C3)CC1)OCC2`: the melting point lay within 186 to 190 °C.
Regarding `CC(=O)N1CCc2ccc(Cl)c(S(=O)(=O)Cl)c2C1`, the melting point is 121 to 125 °C.
For the molecule `CCCCn1c(=O)c(NC(=O)Nc2c(C(C)C)cc(N(C)Cc3cccnc3)cc2C(C)C)c(-c2cccc(OC)c2)c2cccnc21`, the melting point lay in the range of 155 to 157 °C.
The same measure for `CN(C)c1cc(CC(C#N)=CNc2ccccc2)cc(N(C)C)c1N1CCCCC1`: 200 to 202 °C; for `CC(C)COc1ccc2c(c1)c(=O)n(CCC(=O)O)c(=O)n2Cc1c[nH]c2ccccc12`: 199 to 201 °C.
Consider `COc1ccc(S(=O)(=O)NC(=N)CCN2CCOC2=O)cc1`, for which the melting point was in the range of 115 to 118 °C.
Turning to `N#Cc1c(F)nn(-c2c(Cl)cc(C(F)(F)F)cc2Cl)c1N`, the melting point lay in the range of 193 to 194 °C.
The same measure for `Cc1cc(NC(C)(C)C)nc(Cl)c1C#N`: 109 °C.
Regarding `CCN(CC)c1nc(Nc2ccc3cc(-c4ccccc4)c(=O)oc3c2)nc(N2CCCC(CO)C2)n1` (stereo not drawn), the melting point fell in the range of 182 to 183 °C.
With `Nc1c(Cl)cc(C(=O)OC2CCN(CCCC(=O)c3ccc4[nH]c(=O)[nH]c4c3)CC2)c2c1CCO2`, the melting point came out at 273 °C.
`CC(O)=C(C#N)C(=O)c1ccc(F)c(F)c1` came in with a melting point of 51 to 54 °C.
Turning to `COc1ccc(C(=O)Nc2ccc(F)cc2)cc1NCc1cccs1`, the melting point was in the range of 179 to 181 °C.
The molecule `O=C(O)C1Cc2ccccc2C1` displayed a melting point of 130 °C.
The same measure for `Nc1c(-c2csc(-c3ccncc3)n2)c(=O)[nH]c2ccc(N3CCCCC3)cc12`: 199 to 202 °C; for `O=C(O)C(=O)c1cccc(Cl)c1`: 59 to 62 °C; for `COc1ccc(NC(=O)CBr)c([N+](=O)[O-])c1`: 94 to 98 °C.
The value for `CCCCCCCCCCOc1ccc2cc(C#CC(C)O)ccc2c1` (stereo not drawn) was 74 to 75 °C; that for `Cn1cc(-c2cc3cccnc3[nH]2)c2ccc(C(=O)Nc3nc[nH]n3)cc21` was 343 to 345 °C.
For the molecule `O=c1[nH]c(C2CCCN(Cc3ccccc3)C2)cc2ccccc12` (stereo not drawn), the melting point was 176 to 178 °C.
`CCCn1c(=O)[nH]c(=O)c2[nH]c(/C=C/c3ccccc3)nc21` registered a melting point above 295 °C.
In turn, `CCCCn1cc2c(n1)c(N)nc1ccccc12` displayed a melting point of 194 to 195 °C.
Take `CCOC(=O)CCCSc1nccc(NC(=S)NCC(F)(F)F)n1`: the melting point is 104 to 106 °C.
The same measure for `O[C@@H](CNCCOc1ccc2oc(-c3noc(C(F)(F)F)n3)cc2c1)COc1ccccc1Cl`: 112 to 115 °C; for `COc1ccc2c(C(=O)O)cc3cc4c(cc3c2c1)OCO4`: 293 to 295 °C.
The molecule `OCc1cccc(Nc2ncc(-c3ccccc3)s2)n1` returned a melting point of 196 to 198 °C.
`COC(=O)Cc1ccc(CNC(=O)C2Cc3ccccc3N2S(=O)(=O)c2ccc(-c3cccc(C)c3)cc2)cc1` (stereo not drawn) showed a melting point of 66 to 68 °C.
On to `CC(C)(C)OC(=O)NC1(CCO)CC1`, for which the melting point is 93 to 95 °C.
In turn, `COc1ccc2c(c1)Cc1cc(CCC(C)=O)ccc1-2` gave a melting point of 100 to 101 °C.
In turn, `CCCn1c(COCC)nc2c(N)nc3ccc(OCCCCCCNC(=O)NC(C)C)cc3c21` had a melting point of 167 to 169 °C.
Turning to `COC(=O)c1cc(CO)nn1-c1ncccc1Cl`, the melting point was 104 °C.
`CO/C=C(/C(=O)OC)c1ccccc1Oc1cccc(N)c1` gave a melting point of 83 to 85 °C.
Molecule `CCc1nn(C2CCCC2)c2cc(-c3cccs3)ccc12` gave a melting point of 60 to 64 °C.
Consider `Cc1c(NC(=O)CC(C)(C)C)c(C)c2c(c1-c1cccnc1)OCC2c1ccc(C(C)C)cc1` (stereo not drawn), for which the melting point lay within 142 to 144 °C.
`Cn1nc(C(F)(F)F)c(C(=O)O)c1F` displayed a melting point of 165 to 166 °C.
Regarding `CCOP(=O)(/C=C/c1cn(-c2ccccc2)nc1OCc1ccc(OCc2nc(-c3ccc(CC(=O)O)cc3)oc2C)c(OC)c1)OCC`, the melting point was in the range of 119 to 120 °C.
In the case of `CC(C)n1cc2c3c(cccc31)C1CC(C(=O)NC3CCCCC3)CN(C)C1C2` (stereo not drawn), the melting point is above 250 °C.
The value for `CCCOCC1CC2CCC13CN(CCC)CCC31c3cccc(O)c3OC21` (stereo not drawn) was 123 to 124 °C.
Regarding `CCCOc1ccc(NC=C(C(=O)OCC)C(=O)OCC)nc1C`, the melting point lay within 116 to 118 °C.
`CC(C)S(=O)(=O)c1ccc2c(c1)nc(CC1CC1)n2CC1CC1` had a melting point of 107 °C.
The molecule `COC12CC(C)(c3nc(-c4cncc(Br)c4)no3)CN(C)C1Cc1c(Br)n(C)c3cccc2c13` (stereo not drawn) gave a melting point of 167 to 172 °C.
Consider `CCCc1ncc(CN2CC=C(c3ccc(F)cc3)CC2)c(N)n1`, for which the melting point lay in the range of 142 to 145 °C.
On to `CC(C)N(CC(O)CC(c1ccccc1)c1ccccc1)C(C)C` (stereo not drawn), for which the melting point lay within 55 to 59 °C.
Turning to `CCCOCc1ccc(C#CC2(O)CN3CCC2CC3)cc1` (stereo not drawn), the melting point is 140 to 141 °C.
Consider `NC(=O)Cc1ccc2[nH]cc(CCNC(=O)OCc3ccccc3)c2c1`, for which the melting point was in the range of 124 to 125 °C.
`c1ccc2c(c1)CCN(Cc1cc3ccccc3[nH]1)C2` came in with a melting point of 129 to 131 °C.
Turning to `CCCCCCCCCCCCCCCCCCOc1cc(OCCC[PH](=O)OCC)cc(N(CC(=O)O)CC(=O)O)c1` (stereo not drawn), the melting point was in the range of 105 to 108 °C.
`Cc1c(C=CCCCCCCCCCC(=O)O)cccc1C(=O)c1ccc(Cl)cc1`: the melting point was 49 °C.
`Cc1cc(Oc2cc(C(F)(F)F)ccn2)ccc1OCCNc1ncnc2scnc12` showed a melting point of 107 to 111 °C.
The molecule `CCCC(CCC)C(=O)c1ccc(O)c(C(=O)O)c1` yielded a melting point of 118 °C.
Regarding `CC(C)(C)c1c(O)[nH]c(=O)[nH]c1=O`, the melting point lay within 247 to 248 °C.
For `O=C1COC(c2cccc(Cl)c2)c2ncccc21` (stereo not drawn), the melting point lay in the range of 158 to 160 °C.
Regarding `N#CC1=C(C2=CCNCC2)Nc2n[nH]cc2C1c1cccc2nonc12` (stereo not drawn), the melting point was 180 °C.
The value for `Cc1ccc(S(=O)(=O)N2C(=O)c3cc4c(cc3[C@H]3[C@@H](C=O)[C@H](O[Si](C)(C)C(C)(C)C)[C@H]5OC(C)(C)O[C@H]5[C@@H]32)OCO4)cc1` was above 200 °C; that for `O=C(c1ccc(I)cc1)c1ccc2c(c1)c(-c1cccc(Cl)c1)nc1nnnn12` was 175 °C.
In turn, `COc1ccnc2c1c(C(C)=O)cn2S(=O)(=O)c1ccccc1` showed a melting point of 156 to 158 °C.
As for `Cc1cc(CCCCCOc2c(Cl)cc(-c3nnc(C)o3)cc2Cl)on1`, the melting point lay within 71 to 72 °C.
Molecule `NS(=O)(=O)c1cc2c(=O)[nH]ccc2s1` gave a melting point of 300 to 301 °C.
Consider `COC(=O)C(CC(C)C)NC(=O)c1ccc(NCc2ncc[nH]2)cc1-c1ccccc1` (stereo not drawn), for which the melting point was in the range of 156 to 160 °C.
Take `CN(C)CCCCC(N)=O`: the melting point was in the range of 86 to 87 °C.
On to `CN([C@H]1CC[C@H](Nc2nccc(-n3nnc4ccccc43)n2)CC1)S(C)(=O)=O`, for which the melting point was in the range of 250 to 252 °C.
For the molecule `CC(C)c1cccc(C(C)C)c1NC(=O)CSCCCCCCCCCCCCN1CCN(c2ccccc2)CC1`, the melting point lay in the range of 76.5 to 77.5 °C.
The same measure for `O=S(=O)(Nc1ccc2c(OCc3ccc(-c4ccc(F)cc4)cc3)cccc2c1)C(F)(F)F`: 139 to 140 °C.
For the molecule `Cc1c(-c2ccc(O)cc2)n(Cc2ccc(OCCN3CCCCCC3)cc2)c2ccc(O)cc12`, the melting point fell in the range of 168 to 171 °C.
The value for `O=C(O)Cc1ccc(OCCNC(=O)C2Cc3ccccc3N2S(=O)(=O)c2ccc(-c3cc(Cl)ccc3Cl)cc2)cc1` (stereo not drawn) was 80 to 86 °C; that for `Cc1ccccc1N1CCN(CCC2CN(C)C(=O)O2)CC1` (stereo not drawn) was 55 to 57 °C; that for `Nc1nc(Cl)c(-c2ccc(Cl)cc2Cl)c(Cl)n1` was 211 to 213 °C.
Molecule `Cc1[nH]c(C(N)=O)c(C)c1-c1ccnc(Nc2ccc(F)cc2)n1` registered a melting point of 93.5 to 96.8 °C.
Molecule `c1ccc2sc(SSN3CCOCC3)nc2c1` returned a melting point of 132 to 136 °C.
`Fc1cccc(Nc2nc(Cl)nc(Cl)n2)c1` registered a melting point of 143 °C.
`C=C(CC1(C)C(=O)c2ccc(Cl)cc2C1=O)c1cccc(Cl)n1` (stereo not drawn): the melting point fell in the range of 72 to 73 °C.
The molecule `CNS(=O)(=O)CCc1ccc2[nH]cc(CCCN3C(=O)c4ccccc4C3=O)c2c1` registered a melting point of 169 to 170 °C.
The same measure for `CCNC(=O)ON=C1CCOc2ccc(OC)cc21`: 97 to 98 °C; for `C=CCOC(=O)c1c(C)nc2c(cnn2C/C=C\CC)c1N`: 78 to 81 °C; for `CC(=O)N1CCCC(C2=C(C#N)C(c3cccc4nonc34)c3c[nH]nc3N2)C1` (stereo not drawn): 219 °C.
The value for `O=C(O)c1ccccc1Nc1ccc([N+](=O)[O-])cc1[N+](=O)[O-]` was 266 to 270 °C; that for `ClC(Cl)=CCOc1cc(Cl)c(OCc2cccc(Cl)c2)c(Cl)c1` was 87 °C; that for `C=CCN1CCN(c2cc3c(cc2Cl)c(=O)c(C(=O)O)cn3CC)CC1` was 212 °C.
The molecule `CON(C)S(=O)(=O)c1ccccc1S(N)(=O)=O` showed a melting point of 136 to 140 °C.
The same measure for `CCOc1ccc2c(c1)C(=O)CCC2`: 34 to 36 °C; for `COc1ccc2c(c1)CN(c1ccc3c(ccn3C)c1)C2`: 193 to 196 °C.
In turn, `COC(=O)c1cc(-c2nc(COc3ccc(COc4nn(-c5ccccc5)cc4C=O)cc3OC)c(C)o2)ccc1C` came in with a melting point of 195 to 196 °C.
The same measure for `Brc1ccc(OCCC(c2ccccc2)c2ccccc2)cc1`: 70 to 71 °C; for `FC(F)C(F)(F)Sc1nc2c3ccccc3c3ccccc3c2[nH]1`: 230 to 231 °C.
